Source: patent publication US20220249523A1, “BENZOAZEPINE COMPOUND-CONTAINING FREEZE-DRIED COMPOSITION” (OTSUKA PHARMACEUTICAL CO., LTD., priority 2019, published 2022)

Columns and labels:
Format in all cases: physicochemical
[1] = Storage stability of freeze-dried compositions: amount of tolvaptan produced (HPLC area normalization); details: for Amount of tolvaptan produced: freeze-dried composition, compound (1) 0.1 w/v %; for Amount of tolvaptan produced / Amount of tolvaptan produced (%): 60° C. for 1 month; for Amount of tolvaptan produced (%): freeze-dried
Procedure: Aqueous solutions containing compound (1) (0.1 w/v %), mannitol (4 w/v %), and sodium hydroxide (q.s.) were prepared (pH 7, 7.5, 8, 8.5, or 9) using a 20 mM disodium hydrogen phosphate buffer.
The aqueous solutions were each placed in a 2-mL glass vial, and frozen to a temperature of −40° C. or lower. Thereafter, the vials were depressurized to vacuum, and water was removed during freeze-drying to thus obtain freeze-dried compositions. The resulting products were stored at 40° C. for 3 months, or at 60° C. for 1 month; and then reconstituted with the same amount of water as that removed by freeze-drying, to return the products back to aqueous solutions. The amount of total degradation products or tolvaptan produced (%) in each of the obtained aqueous solutions was determined by the HPLC area normalization method.
Freeze-dried compositions were prepared in the same manner as in the “Analysis 1: Stability of Freeze-Dried Formulation of Compound (1)” section above using additives other than mannitol, i.e., NaCl, sorbitol, sucrose, maltose, trehalose, or lactose. Here, the pH of the aqueous solutions before preparing freeze-dried compositions was adjusted to 8.5. However, for lactose, the pH of the aqueous solution before preparing a freeze-dried composition was adjusted to 9.0 with a 24 mM sodium hydrogen carbonate buffer.
After the obtained freeze-dried compositions were stored at 60° C. for 1 month, the amount of tolvaptan produced was determined by the HPLC area normalization method, and the stability of compound (1) in each composition was analyzed. […] The reduction was particularly remarkable with sucrose, maltose, and lactose. Additionally, after storage at 60° C. for 1 week of the aqueous solutions before preparing freeze-dried compositions, the stability of compound (1) in each composition was analyzed. […] The results confirmed that the use of maltose or lactose increased the amount of tolvaptan produced (%).
Aqueous solutions with a pH of 7.5, 8, 8.5, or 9 were prepared in the same manner as in the “Analysis 2: Stability of Freeze-Dried Formulation of Compound (1)” section above, except that compound A at a concentration of 0.541 w/v % and sucrose at a concentration of 7.5 w/v % were used. The resulting aqueous solutions were freeze-dried to obtain freeze-dried compositions. The freeze-dried compositions were stored at 60° C. for 1 month. Thereafter, the amount of tolvaptan produced (%) was determined by the HPLC area normalization method.
An aqueous solution with a pH of 8.5 was prepared in the same manner as in the “Analysis 1: Stability of Freeze-Dried Formulation of Compound A” section above, using potassium phosphate instead of sodium phosphate as a buffering agent. Further, a freeze-dried composition was prepared to analyze the stability of compound A in the freeze-dried composition (after storage at 60° C. for 1 month). The amount of tolvaptan produced (%) was 0.07%, which was the same as when sodium phosphate was used.
Aqueous solutions with a pH of 8.0 were prepared in the same manner as in the “Analysis 1: Stability of Freeze-Dried Formulation of Compound A” section above, such that the sucrose concentration was 1%, 2%, 4%, or 7.5%. Further, the freeze-dried compositions were prepared to analyze the stability of compound A in the freeze-dried compositions (after storage at 60° C. for 1 month). The amount of tolvaptan produced (%) was 0.25% when the sucrose concentration was 1%, 0.12% when the sucrose concentration was 2%, 0.08% when the sucrose concentration was 4%, and 0.10% when the sucrose concentration was 7.5%.
In addition to the aqueous solution containing sodium phosphate at a concentration of 20 mM and having a pH of 8.5, aqueous solutions containing sodium phosphate at a concentration of 10 mM or 50 mM were also prepared as in the same manner as the “Analysis 1: Stability of Freeze-Dried Formulation of Compound A” section above. […]

[2] = Stability of phosphate ester bond in aqueous solution on high-pressure steam sterilization (HPLC area normalization); details: 0.1 w/v % aqueous solution, 121° C., 20 minutes
Procedure: Aqueous solutions containing compound (1) at a concentration of 0.1 w/v % were prepared, and the stability of the aqueous solutions when subjected to high-pressure steam sterilization (121° C., 20 minutes) was analyzed. The aqueous solutions were prepared using a 100 mM sodium phosphate buffer or a 100 mM Tris buffer. The pH of the aqueous solutions prepared using each of the buffers was adjusted with sodium hydroxide to prepare solutions with different pHs. After the treatment, the purity of compound (1) and the amount of tolvaptan produced were determined by the HPLC area normalization method.

[3] = Solubility in water of compound (1) and its metal salts
Procedure: (§1) The stability of these metal salts in a solid state was analyzed. […] Additionally, the solubility in water was analyzed.

[4] = pH at reconstitution with water of stored freeze-dried compositions; details: initial pH 8.5
Procedure: In addition to the aqueous solution containing sodium phosphate at a concentration of 20 mM and having a pH of 8.5, aqueous solutions containing sodium phosphate at a concentration of 10 mM or 50 mM were also prepared as in the same manner as the “Analysis 1: Stability of Freeze-Dried Formulation of Compound A” section above. Further, freeze-dried compositions were prepared to analyze the stability of compound A in the freeze-dried compositions (after storage at 60° C. for 1 month, or at 40° C. for 3 months). Thereafter, the pH at the time of reconstitution with water was analyzed.

[5] = Appearance on reconstitution of freeze-dried compositions with water (foaming, cloudiness); details: freeze-dried compositions with a sucrose concentration of 4% or 7.5%, pH 8.0
[6] = Stability of metal salts of compound (1) in a solid state; details: compared to compound (1)
Procedure: as §1

## Cc1ccccc1C(=O)Nc1ccc(C(=O)N2CCCC(OP(=O)(O)O)c3cc(Cl)ccc32)c(C)c1 (stereo not drawn) [compound (1)]
[1]; mannitol 4 w/v %, solution pH 8.5
  Amount of tolvaptan produced: 1.45%
[1]; mannitol 4 w/v %, solution pH 9
  Amount of tolvaptan produced: 0.9%
[1]; mannitol 4 w/v %, solutions with a pH exceeding 8, storage at 60° C.
  Stability in freeze-dried compositions: relatively stable
[2]; sodium phosphate buffer having a pH of 7.5 or more
  Stability of phosphate ester bond on high-pressure steam sterilization: highly stable
[2]; tolvaptan formed as a precipitate
  Stability of phosphate ester bond on high-pressure steam sterilization: hydrolyzed
[3]
  Solubility in water: 0.14 w/v %

## Cc1ccccc1C(=O)Nc1ccc(C(=O)N2CCCC(OP(=O)([O-])[O-])c3cc(Cl)ccc32)c(C)c1.[Na+].[Na+] (stereo not drawn) [compound A]
[4]; sodium phosphate 10 mM
  pH at 40° C. 3 months later: 8.16
  pH at 60° C. 1 month later: 8.24
[4]; sodium phosphate 20 mM
  pH at 40° C. 3 months later: 8.24
  pH at 60° C. 1 month later: 8.34
[4]; sodium phosphate 50 mM
  pH at 40° C. 3 months later: 8.30
  pH at 60° C. 1 month later: 8.36
[1]; compound A 0.541 w/v %, sucrose 7.5 w/v %, 20 mM sodium phosphate, pH 7.5
  Amount of tolvaptan produced (%): 0.22%
[1]; compound A 0.541 w/v %, sucrose 7.5 w/v %, 20 mM sodium phosphate, pH 8
  Amount of tolvaptan produced (%): 0.10%
[1]; compound A 0.541 w/v %, sucrose 7.5 w/v %, 20 mM sodium phosphate, pH 8.5
  Amount of tolvaptan produced (%): 0.07%
[1]; compound A 0.541 w/v %, sucrose 7.5 w/v %, 20 mM sodium phosphate, pH 9
  Amount of tolvaptan produced (%): below the detection limit
[1]; compound A, pH 8.0, sucrose concentration 1%
  Amount of tolvaptan produced (%): 0.25%
[1]; compound A, pH 8.0, sucrose concentration 2%
  Amount of tolvaptan produced (%): 0.12%
[1]; compound A, pH 8.0, sucrose concentration 4%
  Amount of tolvaptan produced (%): 0.08%
[1]; compound A, sucrose 7.5 w/v %, pH 8.5, sodium phosphate 10 mM
  Amount of tolvaptan produced (%): 0.07%
[1]; compound A, sucrose 7.5 w/v %, pH 8.5, sodium phosphate 50 mM
  Amount of tolvaptan produced (%): below the detection limit
[1]; compound A, sucrose 7.5 w/v %, potassium phosphate instead of sodium phosphate, pH 8.5
  Amount of tolvaptan produced (%): 0.07%
[5]
  Appearance when reconstituted with water: foaming and slight cloudiness were observed
[3]
  Solubility in water: ≥ 4 w/v %
[6]
  Stability in a solid state: remarkably improved stability

## [O-][n+]1ccccc1[S-].[O-][n+]1ccccc1[S-].[Zn+2] [Zinc salt]
[3]
  Solubility in water: 0.003 w/v %
[6]
  Stability in a solid state: remarkably improved stability
